Results as given in paper PMC9234961 (Journal of Medicinal Chemistry, 2022).
Where “and” joins values, the source holds several entries; their conditions need not be identical. Identical values can stand only once. Like-named read-outs stand apart in the source and are kept apart here.

Tests used:
[1] = target: kinases (468) (Homo sapiens, UniProt O00506); details: kinase YSK1 (Entrez STK25); compound concentration 1000 nM
[2] = target: kinases (468) (Homo sapiens, UniProt P00533, L858R/T790M); details: EGFR(L858R,T790M); 1000 nM
[3] = target: kinases (468) (Homo sapiens, UniProt P00533, L861Q); details: EGFR(L861Q); 1000 nM
[4] = target: kinases (468) (Homo sapiens, UniProt P07947); details: kinase YES (Entrez YES1); compound concentration 1000 nM
[5] = target: kinases (468) (Homo sapiens, UniProt P07949, M918T); details: kinase RET(M918T) (Entrez RET); compound concentration 1000 nM
[6] = target: kinases (468) (Homo sapiens, UniProt P07949, V804M); details: kinase RET(V804M) (Entrez RET); compound concentration 1000 nM
[7] = target: kinases (468) (Homo sapiens, UniProt P08581); details: MET; 1000 nM
[8] = target: kinases (468) (Homo sapiens, UniProt P10721, L576P); details: KIT(L576P); 1000 nM
[9] = target: kinases (468) (Homo sapiens, UniProt P29597); details: compound concentration 1000 nM
[10] = target: kinases (468) (Homo sapiens, UniProt P30530); details: AXL; 1000 nM
[11] = target: kinases (468) (Homo sapiens, UniProt P36888, D835V); details: FLT3(D835V); 1000 nM
[12] = target: kinases (468) (Homo sapiens, UniProt P49759); details: CLK1; 1000 nM
[13] = target: kinases (468) (Homo sapiens, UniProt P51956); details: NEK3; 1000 nM
[14] = target: kinases (468) (Homo sapiens, UniProt P52564); details: MEK6 (MAP2K6); 1000 nM
[15] = target: kinases (468) (Homo sapiens, UniProt P53671); details: LIMK2; 1000 nM
[16] = target: kinases (468) (Homo sapiens, UniProt P54646); details: AMPK-alpha2 (PRKAA2); 1000 nM
[17] = target: kinases (468) (Homo sapiens, UniProt P54760); details: EPHB4; 1000 nM
[18] = target: kinases (468) (Homo sapiens, UniProt P78368); details: CSNK1G2; 1000 nM
[19] = target: kinases (468) (Homo sapiens, UniProt Q07912); details: kinase TNK2 (Entrez TNK2); compound concentration 1000 nM
[20] = target: kinases (468) (Homo sapiens, UniProt Q09013); details: DMPK; 1000 nM
[21] = target: kinases (468) (Homo sapiens, UniProt Q13043); details: MST1 (STK4); 1000 nM
[22] = target: kinases (468) (Homo sapiens, UniProt Q86Z02); details: HIPK1; 1000 nM
[23] = target: kinases (468) (Homo sapiens, UniProt Q8NI60); details: ADCK3 (CABC1); 1000 nM
[24] = target: kinases (468) (Homo sapiens, UniProt Q8TD08); details: ERK8 (MAPK15); 1000 nM
[25] = target: kinases (468) (Homo sapiens, UniProt Q8TDC3); details: BRSK1; 1000 nM
[26] = target: kinases (468) (Homo sapiens, UniProt Q8WU08); details: kinase YANK1 (Entrez STK32A); compound concentration 1000 nM
[27] = target: kinases (468) (Homo sapiens, UniProt Q9BQI3); details: EIF2AK1; 1000 nM
[28] = target: kinases (468) (Homo sapiens, UniProt Q9BYT3); details: kinase STK33 (Entrez STK33); compound concentration 1000 nM
[29] = target: kinases (468) (Homo sapiens, UniProt Q9NQU5); details: PAK6; 1000 nM
[30] = target: kinases (468) (Homo sapiens, UniProt Q9P2K8, S808G); details: GCN2(Kin.Dom.2,S808G) (EIF2AK4); 1000 nM
[31] = target: kinases (468) (Homo sapiens, UniProt Q9UBE8); details: NLK; 1000 nM
[32] = target: kinases (468) (Homo sapiens, UniProt Q9UM73, L1196M); details: ALK(L1196M); 1000 nM
[33] = test system: kinases (468)

kinases (468) (Homo sapiens, UniProt P29597), sequence (P29597 whole entry): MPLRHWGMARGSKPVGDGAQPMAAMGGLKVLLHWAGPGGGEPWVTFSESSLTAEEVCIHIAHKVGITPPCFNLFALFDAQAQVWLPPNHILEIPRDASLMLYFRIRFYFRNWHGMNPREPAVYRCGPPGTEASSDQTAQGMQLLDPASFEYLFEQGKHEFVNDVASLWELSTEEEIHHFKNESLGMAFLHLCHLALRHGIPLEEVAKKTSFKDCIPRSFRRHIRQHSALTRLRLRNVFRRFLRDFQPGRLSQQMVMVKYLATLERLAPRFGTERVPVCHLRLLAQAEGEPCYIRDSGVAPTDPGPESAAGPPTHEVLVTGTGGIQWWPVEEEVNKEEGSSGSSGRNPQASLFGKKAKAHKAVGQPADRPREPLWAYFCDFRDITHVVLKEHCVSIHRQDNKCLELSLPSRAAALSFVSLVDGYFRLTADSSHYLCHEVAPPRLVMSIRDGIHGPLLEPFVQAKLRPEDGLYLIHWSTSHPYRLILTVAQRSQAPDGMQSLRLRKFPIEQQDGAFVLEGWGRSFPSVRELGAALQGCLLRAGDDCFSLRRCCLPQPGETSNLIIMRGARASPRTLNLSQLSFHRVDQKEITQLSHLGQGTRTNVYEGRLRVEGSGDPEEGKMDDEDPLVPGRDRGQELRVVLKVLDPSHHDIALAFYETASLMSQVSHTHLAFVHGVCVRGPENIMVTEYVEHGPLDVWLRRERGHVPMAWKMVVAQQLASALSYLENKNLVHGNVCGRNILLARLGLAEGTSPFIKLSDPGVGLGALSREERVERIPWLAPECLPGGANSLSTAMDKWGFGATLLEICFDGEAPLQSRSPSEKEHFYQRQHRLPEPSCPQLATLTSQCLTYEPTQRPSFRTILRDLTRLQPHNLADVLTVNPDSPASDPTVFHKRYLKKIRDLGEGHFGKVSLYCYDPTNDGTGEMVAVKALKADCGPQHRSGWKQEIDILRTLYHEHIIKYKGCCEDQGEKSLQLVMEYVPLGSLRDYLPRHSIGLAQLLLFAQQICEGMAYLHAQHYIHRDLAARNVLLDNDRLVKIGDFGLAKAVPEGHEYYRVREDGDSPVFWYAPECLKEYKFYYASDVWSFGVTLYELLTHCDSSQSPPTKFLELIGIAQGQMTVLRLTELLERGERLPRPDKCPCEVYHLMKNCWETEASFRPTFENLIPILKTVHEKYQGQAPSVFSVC
kinases (468) (Homo sapiens, UniProt P08581), sequence (P08581 25-1390): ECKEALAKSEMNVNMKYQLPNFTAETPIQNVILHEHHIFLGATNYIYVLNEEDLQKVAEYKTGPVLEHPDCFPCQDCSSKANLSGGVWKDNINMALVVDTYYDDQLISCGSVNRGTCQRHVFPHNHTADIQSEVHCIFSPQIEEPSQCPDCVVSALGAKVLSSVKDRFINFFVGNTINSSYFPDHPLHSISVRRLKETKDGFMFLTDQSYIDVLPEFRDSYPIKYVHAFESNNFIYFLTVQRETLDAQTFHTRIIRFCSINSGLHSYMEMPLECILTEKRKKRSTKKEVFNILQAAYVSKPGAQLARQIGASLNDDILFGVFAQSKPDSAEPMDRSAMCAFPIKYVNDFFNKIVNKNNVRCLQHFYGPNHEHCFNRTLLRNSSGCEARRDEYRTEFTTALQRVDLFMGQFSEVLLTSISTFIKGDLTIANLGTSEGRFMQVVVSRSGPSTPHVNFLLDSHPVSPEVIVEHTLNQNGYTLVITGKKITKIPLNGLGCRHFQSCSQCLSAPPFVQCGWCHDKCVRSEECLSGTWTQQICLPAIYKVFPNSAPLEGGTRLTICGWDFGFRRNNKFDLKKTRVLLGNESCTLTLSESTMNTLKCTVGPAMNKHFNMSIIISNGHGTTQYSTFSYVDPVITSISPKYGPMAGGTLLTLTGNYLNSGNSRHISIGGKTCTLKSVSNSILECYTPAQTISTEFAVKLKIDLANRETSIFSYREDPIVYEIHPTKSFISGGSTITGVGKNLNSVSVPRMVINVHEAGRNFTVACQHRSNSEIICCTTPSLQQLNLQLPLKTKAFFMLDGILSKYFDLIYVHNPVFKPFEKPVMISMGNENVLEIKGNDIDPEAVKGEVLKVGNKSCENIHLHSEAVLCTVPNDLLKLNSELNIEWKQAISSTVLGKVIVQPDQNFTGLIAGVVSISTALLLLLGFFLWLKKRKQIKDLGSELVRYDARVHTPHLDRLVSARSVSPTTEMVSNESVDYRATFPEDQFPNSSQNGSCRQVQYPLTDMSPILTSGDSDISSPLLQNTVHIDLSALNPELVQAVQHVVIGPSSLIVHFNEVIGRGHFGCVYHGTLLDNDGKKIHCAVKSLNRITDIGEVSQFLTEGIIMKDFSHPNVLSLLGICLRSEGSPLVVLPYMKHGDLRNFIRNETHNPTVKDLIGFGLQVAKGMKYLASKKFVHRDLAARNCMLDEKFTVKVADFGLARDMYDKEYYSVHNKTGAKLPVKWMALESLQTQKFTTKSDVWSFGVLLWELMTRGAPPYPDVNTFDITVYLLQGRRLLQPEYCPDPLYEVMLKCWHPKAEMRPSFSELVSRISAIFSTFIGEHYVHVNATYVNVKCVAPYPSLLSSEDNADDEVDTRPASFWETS
kinases (468) (Homo sapiens, UniProt Q09013), sequence (Q09013 whole entry): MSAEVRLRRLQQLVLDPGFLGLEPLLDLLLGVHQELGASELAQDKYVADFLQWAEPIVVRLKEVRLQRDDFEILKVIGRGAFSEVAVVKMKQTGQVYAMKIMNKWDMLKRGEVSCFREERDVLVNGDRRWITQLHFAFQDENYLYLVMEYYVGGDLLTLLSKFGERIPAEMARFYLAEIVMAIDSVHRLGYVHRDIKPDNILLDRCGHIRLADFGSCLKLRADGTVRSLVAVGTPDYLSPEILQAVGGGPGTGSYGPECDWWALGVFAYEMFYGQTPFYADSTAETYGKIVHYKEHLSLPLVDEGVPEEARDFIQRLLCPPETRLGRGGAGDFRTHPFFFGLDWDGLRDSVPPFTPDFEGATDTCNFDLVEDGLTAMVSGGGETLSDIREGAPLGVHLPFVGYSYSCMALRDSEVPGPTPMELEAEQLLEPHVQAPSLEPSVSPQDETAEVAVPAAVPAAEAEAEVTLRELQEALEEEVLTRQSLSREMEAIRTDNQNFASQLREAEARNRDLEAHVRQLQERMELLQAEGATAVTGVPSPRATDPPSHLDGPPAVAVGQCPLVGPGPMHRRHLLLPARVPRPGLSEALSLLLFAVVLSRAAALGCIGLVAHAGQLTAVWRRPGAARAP
kinases (468) (Homo sapiens, UniProt P52564), sequence (P52564 whole entry): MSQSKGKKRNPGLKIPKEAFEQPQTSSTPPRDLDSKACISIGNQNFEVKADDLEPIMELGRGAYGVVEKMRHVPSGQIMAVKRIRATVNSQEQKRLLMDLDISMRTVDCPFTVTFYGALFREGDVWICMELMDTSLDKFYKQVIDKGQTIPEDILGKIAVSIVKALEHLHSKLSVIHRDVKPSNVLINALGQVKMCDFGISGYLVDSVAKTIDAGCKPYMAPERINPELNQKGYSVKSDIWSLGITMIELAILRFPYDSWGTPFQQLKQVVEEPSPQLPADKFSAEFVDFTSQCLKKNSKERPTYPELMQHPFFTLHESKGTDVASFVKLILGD
kinases (468) (Homo sapiens, UniProt P54760), sequence (P54760 16-987): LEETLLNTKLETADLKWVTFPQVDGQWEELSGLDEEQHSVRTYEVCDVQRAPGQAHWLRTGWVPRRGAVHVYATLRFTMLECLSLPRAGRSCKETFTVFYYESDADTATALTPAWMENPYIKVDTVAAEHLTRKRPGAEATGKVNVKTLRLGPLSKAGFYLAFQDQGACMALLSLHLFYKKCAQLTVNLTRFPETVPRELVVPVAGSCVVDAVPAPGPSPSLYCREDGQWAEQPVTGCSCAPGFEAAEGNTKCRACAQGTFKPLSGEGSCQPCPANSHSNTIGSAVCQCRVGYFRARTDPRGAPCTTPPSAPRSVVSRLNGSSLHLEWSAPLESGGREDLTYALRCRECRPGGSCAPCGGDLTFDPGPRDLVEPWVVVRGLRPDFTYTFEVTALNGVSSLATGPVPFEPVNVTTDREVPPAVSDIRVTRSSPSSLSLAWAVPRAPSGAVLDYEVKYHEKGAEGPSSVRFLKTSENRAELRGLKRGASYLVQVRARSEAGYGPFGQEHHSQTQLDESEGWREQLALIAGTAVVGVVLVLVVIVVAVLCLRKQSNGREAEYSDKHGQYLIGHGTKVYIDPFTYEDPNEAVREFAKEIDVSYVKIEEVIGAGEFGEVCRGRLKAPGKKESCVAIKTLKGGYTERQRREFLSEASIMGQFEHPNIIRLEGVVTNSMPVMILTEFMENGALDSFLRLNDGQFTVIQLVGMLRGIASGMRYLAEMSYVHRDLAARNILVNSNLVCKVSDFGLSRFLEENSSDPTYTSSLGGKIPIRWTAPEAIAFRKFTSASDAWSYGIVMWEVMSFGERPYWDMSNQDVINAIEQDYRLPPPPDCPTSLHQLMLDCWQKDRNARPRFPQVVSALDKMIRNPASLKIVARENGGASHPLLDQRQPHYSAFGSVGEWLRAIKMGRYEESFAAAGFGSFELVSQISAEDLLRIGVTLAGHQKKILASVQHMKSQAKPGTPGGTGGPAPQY
kinases (468) (Homo sapiens, UniProt Q8NI60), sequence (Q8NI60 163-647): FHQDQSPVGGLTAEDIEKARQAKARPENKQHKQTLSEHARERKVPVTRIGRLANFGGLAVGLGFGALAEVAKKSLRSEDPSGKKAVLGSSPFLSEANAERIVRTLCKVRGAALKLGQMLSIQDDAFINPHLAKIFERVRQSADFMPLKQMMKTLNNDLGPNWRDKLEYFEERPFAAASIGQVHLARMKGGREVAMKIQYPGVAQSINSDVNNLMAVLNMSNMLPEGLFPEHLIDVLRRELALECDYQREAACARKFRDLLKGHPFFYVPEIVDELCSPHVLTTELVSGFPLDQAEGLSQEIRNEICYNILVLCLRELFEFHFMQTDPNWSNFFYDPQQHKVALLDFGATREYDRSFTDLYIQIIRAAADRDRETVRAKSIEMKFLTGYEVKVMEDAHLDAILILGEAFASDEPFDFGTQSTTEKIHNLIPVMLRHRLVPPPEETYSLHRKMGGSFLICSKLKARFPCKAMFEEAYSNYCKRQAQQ

## C[C@H]1C[C@@H](O)CN(c2ncc(Cl)c(Nc3ccc4c(c3)c3c(c(=O)n4C)OCC(F)(F)[C@H](C4CC4)N3)n2)C1 [CCT373566_9A]
[1]
  Percent Control: 91%
[2]
  Percent Control: 81%
[3]
  Percent Control: 100%
[4]
  Percent Control: 99%
[5]
  Percent Control: 100%
[6]
  Percent Control: 97%
[7]
  Percent Control: 100%
[8]
  Percent Control: 100%
[9]; kinase TYK2(JH1domain-catalytic) (Entrez TYK2)
  Percent Control: 97%
[9]; kinase TYK2(JH2domain-pseudokinase) (Entrez TYK2)
  Percent Control: 89%
[10]
  Percent Control: 95%
[11]
  Percent Control: 90%
[12]
  Percent Control: 94%
[13]
  Percent Control: 98%
[14]
  Percent Control: 89%
[15]
  Percent Control: 100%
[16]
  Percent Control: 100%
[17]
  Percent Control: 100%
[18]
  Percent Control: 99%
[19]
  Percent Control: 93%
[20]
  Percent Control: 98%
[21]
  Percent Control: 99%
[22]
  Percent Control: 98%
[23]
  Percent Control: 100%
[24]
  Percent Control: 95%
[25]
  Percent Control: 96%
[26]
  Percent Control: 98%
[27]
  Percent Control: 72%
[28]
  Percent Control: 100%
[29]
  Percent Control: 93%
[30]
  Percent Control: 100%
[31]
  Percent Control: 100%
[32]
  Percent Control: 97%
[33]
  Percent Control: 98% and 100% and 83%
[33]; FLT3(ITD), 1000 nM
  Percent Control: 99%
[33]; FLT3(ITD,D835V), 1000 nM
  Percent Control: 75%
